According to paper PMC9100651, “Focused Design of Novel Cyclic Peptides Endowed with GABARAP-Inhibiting Activity” (International Journal of Molecular Sciences, 2022):
Values joined by “and” are separate entries in the source; they are usually repeats but may differ in a detail not shown here. Equal entries are not always repeated. Where two headings read alike, the source gives them in different places. Bridge positions count the residues as written; N and C are the ends. Peptide text beside a SMILES is read from it.

Experiments:
[1] = tested on: PC-3 prostate cancer cells; experiment: MTS cell viability assay on PC-3 cells; settings: for cell viability: PC-3, highest tested concentration (10 µM), 96 h post-treatment, % of untreated control
Method: (§1) PC-3 prostate cancer cell line was purchased from the American Type Culture Collection (ATCC, Manassas, VA, USA), cultured at 37 °C and 5% CO2 in Ham’s F-12 K (Kaighn’s) basal medium (Gibco Laboratories, Grand Island, NY, USA), supplemented with 10% FBS (Gibco Laboratories) and 1% of 100 U/mL penicillin/streptomycin (Gibco Laboratories).
(§2) PC-3 and PNT2 cell lines were seeded at a density of 1 × 10^4 cells/well in 96-well plates and maintained under standard growth conditions.
(§3) After 96 h, cell viability was assessed by MTS assay according to the manufacturer’s protocol (Cell Titer 96 Aqueous One Solution Cell Proliferation Assay; Promega, Nacka, Sweden) using a 96-well-plate spectrophotometer (Varioskan Flash Multimode Reader; Thermo-Scientific, Waltham, MA, USA) set at λ = 490 nm. The absorbance value of untreated cells was set at 100% (control), and the viability of treated cells was expressed as a percentage of the control. Three independent experiments were performed in triplicate for each condition.

GABARAP [2] = target: T1, GABARAP (Homo sapiens, UniProt O95166); experiment: Surface Plasmon Resonance (SPR), steady-state affinity; format: binding
Method: SPR experiments were performed on a BIAcore 8K system (Cytiva, Marlborough, MA, USA). GABARAP was dissolved in 10 mM of sodium acetate (pH 5.5) and amine-coupled to a CM5 sensor chip (GE Healthcare, Chicago, IL, USA). The reference peptide K1 was dissolved in the running buffer (10 mM Hepes, pH 7.4, 150 mM NaCl) at concentrations of 10 μM to 156 nM. Gradient concentrations of K1 were injected at a flow rate of 30 μL/min, contact time 120 s at 25 °C. WC8 and WC10 were both dissolved in the running buffer (Sigma-Aldrich Dulbecco’s PBS, pH 7.4, 0.005% Tween™ and 5% DMSO; Sigma-Aldrich, St. Louis, MO, USA) at concentrations of 100 μM to 6.25 μM and 12.5 μM to 390 nM, respectively. Gradient concentrations of the peptides were then flowed over the chip with a flow rate of 30 μL/min, contact time 120 s at 25 °C. […] Two independent experiments for WC8 and WC10 were performed. The binding kinetics were evaluated using the BIAevaluation software package and applying the 1:1 steady-state affinity model.

[3] = target: T2, 6-His-tagged recombinant GABARAP (Homo sapiens, UniProt O95166); experiment: Microscale Thermophoresis (MST) binding affinity
T2 construct: purchased Abcam, Cambridge, UK
Method: The binding affinity (Kd) between the target protein (6-His-tagged recombinant GABARAP, produced by Abcam, Cambridge, UK) and peptide ligands (K1, WC8 and WC10, acquired by ProteoGenix, Schiltigheim, France) was measured by MST [22]. Briefly, histidine-tagged GABARAP was labeled by using a His-tag-specific dye for 30 min at room temperature, using either the conventional Monolith His-Tag Labeling Kit RED-tris-NTA (MO-L008) or the newer Monolith His-Tag Labeling Kit RED-tris-NTA 2nd Generation (MO-L018), both purchased from NanoTemper Technologies (GmbH, München, Germany). MST experiments were performed on both a Monolith NT.115 and a Monolith NT.115Pico instrument (NanoTemper Technologies, München, GmbH), in order to further increase the statistical significance of the attained results.
A fixed concentration of the labeled GABARAP protein was mixed with 16 1:1 serial dilutions of K1, WC8, and WC10. The protein and the peptide were incubated for 60–90 min at room temperature. The MST analysis was performed using standard capillaries, with the following experimental settings: an MST power of 40% (to create a temperature gradient) and a different excitation power in relation to the considered system and instrument (see Supplementary Materials for details, Table S1). Kd values were calculated from compound concentration-dependent changes of normalized fluorescence (Fnorm). In all the experiments, both the protein and the peptides were dissolved in PBS-T buffer (phosphate-buffered saline + 0.05% Tween™ 20; NanoTemper Technologies, GmbH) and 2.5% DMSO. The auto-fluorescence of each peptide was evaluated before proceeding to the determination of the Kd. At least two independent experiments were performed to calculate the Kd values. Data were processed using the NanoTemper MO.Affinity Analysis software (version 2.3), and the fitting was performed by using the Kd model. […]
Table S1. Summary table of the Microscale Thermophoresis (MST) experiments performed on both
Monolith NT.115 and Monolith NT.115Pico instruments. At least two independent experiments were
performed to compute the Kd value.
Protein Ligand MST Exc. Temp. [Ligand] Range SNR* Kd (µM)

[4] = Solubility and stability in water and PBS buffer
Description: Initially, we verified that the peptides were water soluble and stable in the buffer in which the recombinant GABARAP protein was solved.

GABARAP [5] = target: T1, GABARAP; design: method as in PMID 18638487; settings: SPR; cited from earlier work
[6] = tested on: PC-3 prostate cancer cells; settings: human, 96 h, 10 µM
Method: as §1, §2, §3

GABARAP [7] = target: T1, GABARAP; design: method as in PMID 29867141; settings: cited from earlier work
[8] = Kd (MST), Monolith NT.115Pico, GABARAP 10 nM, 25°C
[9] = Kd on GABARAP, consistent among MST and SPR

T1 sequence (O95166 whole entry): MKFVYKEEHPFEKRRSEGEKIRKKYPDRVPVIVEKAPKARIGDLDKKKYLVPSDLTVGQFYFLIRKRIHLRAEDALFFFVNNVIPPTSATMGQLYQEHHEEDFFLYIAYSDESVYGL
T2 sequence (O95166 whole entry): as above

Molecule	cell viability [1] [%]	Kd (GABARAP [2]) [µM]	Kd ([3]; Kd (MST), Monolith NT.115, 25°C, PBS-T, 2.5% DMSO) [µM]	Kd [3, 8] [µM]	Kd [3, 9] [µM]	Kd on GABARAP ([3]; consistent among MST and SPR)	stability in water and PBS [4]	Kd (GABARAP [2]; BIAcore 8K, steady-state analysis, 25 °C, read-out: Kd (SPR)) [µM]	Kd (GABARAP [5])	Kd ([3]; Monolith NT.115, 25°C, PBS-T, 2.5% DMSO, read-out: Kd (MST)) [µM]	Kd ([3]; Monolith NT.115Pico, GABARAP 10 nM, 25°C, read-out: Kd (MST)) [µM]	Kd ([3]; consistent among MST and SPR, read-out: Kd on GABARAP) [µM]	cell viability [6] [%]	efficacy on PC-3 cells compared to Paclitaxel ([1]; PC-3, from 1 to 10 µM, 96 h)	Kd (GABARAP [7]) [µM]
CC[C@H](C)[C@@H]1NC(=O)[C@@H](NC(=O)[C@H](CCC(=O)O)NC(=O)[C@H](Cc2c[nH]c3ccccc23)NC(=O)CNC(=O)[C@@H](N)Cc2c[nH]c3ccccc23)CSSC[C@@H](C(=O)O)NC(=O)[C@H](CCC(=O)O)NC(=O)[C@H](CC(=O)O)NC(=O)[C@H](Cc2ccccc2)NC1=O [WC10, WGWECIFDEC] (H-WGWECIFDEC-OH; disulfide 5-10; N-terminus and C-terminus assumed)	22.5	4.9	4.2 ± 1.8	3.8 ± 1.5	~4	low micromolar range	excellent stability	–	–	–	–	–	–	–	–
CC(C)C[C@H](NC(=O)[C@H](Cc1c[nH]cn1)NC(=O)[C@H](CCC(=O)O)NC(=O)[C@H](Cc1c[nH]c2ccccc12)NC(=O)[C@@H](NC(=O)[C@H](Cc1ccc(O)cc1)NC(=O)[C@@H](NC(=O)[C@H](C)NC(=O)[C@@H](N)CC(=O)O)[C@@H](C)O)[C@@H](C)O)C(=O)N[C@@H](C)C(=O)N[C@@H](Cc1c[nH]c2ccccc12)C(=O)N1CCC[C@H]1C(=O)O [Peptide K1, DATYTWEHLAWP, reference compound]	–	–	–	–	–	–	–	3	0.39 µM and ~0.39 µM	2.6 ± 0.4	3.5 ± 0.9	~3	27.16	–	–
CC[C@H](C)[C@@H]1NC(=O)[C@@H](NC(=O)[C@H](CCC(=O)O)NC(=O)[C@@H](N)Cc2c[nH]c3ccccc23)CSSC[C@@H](C(=O)O)NC(=O)[C@H](CCC(=O)O)NC(=O)[C@H](CC(=O)O)NC(=O)[C@H](Cc2ccccc2)NC1=O [WC8, WECIFDEC] (H-WECIFDEC-OH; disulfide 3-8; N-terminus assumed)	24.06	24.8	–	20.8 ± 2.7	22	low micromolar range	excellent stability	–	–	–	–	–	–	high efficacy	–
EEWVIVSDEEIEEARQKA [AnkB-LIR]	–	–	–	–	–	–	–	–	–	–	–	–	–	–	0.00027
